According to patent US11464770B2, “Anticancer pharmaceutical composition” (NATIONAL CANCER CENTER, priority 2016, dated 2022):
Like-named read-outs stand apart in the source and are kept apart here.

Experiments:
melanoma cell lines = assay: Cell based assay, cell viability (CellTiter-Glo), melanoma cell lines; conditions: Homo sapiens; LOX-IMVI cell line
Procedure: (§1) Commercially available bladder cancer, prostate cancer, lung cancer, breast cancer, blood cancer, pancreatic cancer, colorectal cancer, brain cancer, neuroblastoma, melanoma, liver cancer, cervical carcinoma, ovarian cancer, renal cancer, and papilloma cell lines were each treated with trypsin-EDTA and cultured, followed by being seeded in each well of a 96 well plate. After 24 hours of treatment at constant temperature, the respective cells were treated with the candidate compound so that a final concentration became 0 to 2 μM. The treated cells were additionally cultured for 72 hours, and cell viability was measured by using an ATP detection method (CellTiter-Glo® Luminescent Cell Viability Assay, Promega).

[1] = system: colorectal cancer cell lines (e.g. DLD-1, HCT 116, SW620, HCT-15, HCT-8, RKO); assay: Cell based assay, cell viability (CellTiter-Glo), colorectal cancer cell lines
Procedure: as §1

[2] = system: ovarian cancer cell lines; assay: Cell based assay, cell viability (CellTiter-Glo), ovarian cancer cell lines; conditions: Homo sapiens; OVCAR-3 cells
Procedure: as §1

[3] = Homo sapiens, DLD-1, 72 hours treatment, read-out: IC50, colorectal cancer cell line DLD-1
[4] = Homo sapiens, HCT 116, 72 hours treatment, read-out: IC50, colorectal cancer cell line HCT 116
[5] = Homo sapiens, HCT-8, 72 hours treatment, read-out: IC50, colorectal cancer cell line HCT-8
[6] = Homo sapiens, HCT-15, 72 hours treatment, read-out: IC50, colorectal cancer cell line HCT-15
[7] = Homo sapiens, HT-29, 72 hours treatment, read-out: IC50, colorectal cancer cell line HT-29
[8] = Homo sapiens, LoVo, 72 hours treatment, read-out: IC50, colorectal cancer cell line LoVo
[9] = Homo sapiens, SW480, 72 hours treatment, read-out: IC50, colorectal cancer cell line SW480
[10] = Homo sapiens, SW-620, SW620, 72 hours treatment, read-out: IC50, colorectal cancer cell line SW620
[11] = RKO, 72 hours treatment, read-out: IC50, colorectal cancer cell line RKO

SMILES	IC50 (melanoma cell lines)	IC50 [1, 3]	IC50 [1, 4]	IC50 [1, 5]	IC50 [1, 6]	IC50 [1, 7]	IC50 [1, 8]	IC50 [1, 9]	IC50 [1, 10]	IC50 [1, 11]	IC50 [2]
CC(=O)c1c(SC(C)C)[nH]c2c(Br)ccc(Cl)c2c1=O [Compound 24, 3-acetyl-8-bromo-5-chloro-2-(isopropylthio)quinolin-4(1H)-one]	> 2000 nM	> 2000 nM	> 2000 nM	> 2000 nM	> 2000 nM	> 10000 nM	> 2000 nM	> 2000 nM	> 2000 nM	> 2000 nM	> 2000 nM
CC(=O)c1c([S+]([O-])C(C)C)[nH]c2c(Br)ccc(Cl)c2c1=O (stereo not drawn) [Compound 25, 3-acetyl-8-bromo-5-chloro-2-(isopropylsulfinyl)quinolin-4(1H)-one]	> 2000 nM	> 2000 nM	> 2000 nM	> 2000 nM	> 2000 nM	> 10000 nM	> 2000 nM	> 2000 nM	> 2000 nM	> 2000 nM	> 2000 nM
CC(=O)c1c([S+]([O-])C(C)c2ccccc2)[nH]c2c(Br)ccc(Cl)c2c1=O (stereo not drawn) [Compound 26, 3-acetyl-8-bromo-5-chloro-2-((1-phenylethyl)sulfinyl)quinolin-4(1H)-one]	> 2000 nM	> 2000 nM	> 2000 nM	> 2000 nM	> 2000 nM	> 10000 nM	> 2000 nM	> 2000 nM	> 2000 nM	1790 nM	> 2000 nM
CC(=O)c1c(SCc2cccc(C#N)c2)[nH]c2c(Br)ccc(Cl)c2c1=O [Compound 27, 3-(((3-acetyl-8-bromo-5-chloro-4-oxo-1,4-dihydroquinolin-2-yl)thio)methyl)benzonitrile]	> 2000 nM	> 2000 nM	> 2000 nM	> 2000 nM	> 2000 nM	> 10000 nM	> 2000 nM	> 2000 nM	> 2000 nM	> 2000 nM	> 2000 nM
CC(=O)c1c([S+]([O-])Cc2cccc(C#N)c2)[nH]c2c(Br)ccc(Cl)c2c1=O (stereo not drawn) [Compound 28, 3-(((3-acetyl-8-bromo-5-chloro-4-oxo-1,4-dihydroquinolin-2-yl)sulfinyl)methyl)benzonitrile]	880 nM	940 nM	960 nM	1300 nM	1060 nM	> 10000 nM	1900 nM	1220 nM	1090 nM	1090 nM	690 nM
CC(=O)c1c(SCc2ccc(F)c(Cl)c2)[nH]c2c(Br)ccc(Cl)c2c1=O [Compound 30, 3-acetyl-8-bromo-5-chloro-2-((3-chloro-4-fluorobenzyl)thio)quinolin-4(1H)-one]	> 2000 nM	> 2000 nM	> 2000 nM	> 2000 nM	> 2000 nM	> 10000 nM	> 2000 nM	> 2000 nM	> 2000 nM	> 2000 nM	> 2000 nM
CC(=O)c1c(SCc2ccc([N+](=O)[O-])cc2)[nH]c2c(Br)ccc(Cl)c2c1=O [Compound 32, 3-acetyl-8-bromo-5-chloro-2-((4-nitrobenzyl)thio)quinolin-4(1H)-one]	> 2000 nM	> 2000 nM	> 2000 nM	> 2000 nM	> 2000 nM	> 10000 nM	> 2000 nM	> 2000 nM	> 2000 nM	> 2000 nM	> 2000 nM
CSc1c(C(C)=O)c(=O)c2c(Cl)ccc(Br)c2n1S(C)(=O)=O [Compound 35, 3-acetyl-8-bromo-5-chloro-1-(methylsulfonyl)-2-(methylthio)quinolin-4(1H)-one]	> 2000 nM	> 2000 nM	> 2000 nM	> 2000 nM	> 2000 nM	> 10000 nM	> 2000 nM	> 2000 nM	> 2000 nM	> 2000 nM	> 2000 nM
CC(=O)c1c([S+](C)[O-])n(S(=O)(=O)C(F)(F)F)c2c(Br)ccc(Cl)c2c1=O (stereo not drawn) [Compound 36, 3-acetyl-8-bromo-5-chloro-2-(methylsulfinyl)-1-((trifluoromethyl)sulfonyl)quinolin-4(1H)-one]	> 2000 nM	> 2000 nM	> 2000 nM	> 2000 nM	> 2000 nM	> 10000 nM	> 2000 nM	> 2000 nM	> 2000 nM	> 2000 nM	> 2000 nM
